According to US20230295119A1, “SUBSTITUTED PYRIDINES FOR THE TREATMENT OF INFLAMMATORY DISEASES” (GOSSAMER BIO SERVICES, INC., priority 2020, published 2023):

Experiments:
[1] = target: human JAK1 (Homo sapiens (Human), UniProt P23458); assay: JAK1 TR-FRET kinase assay; format: biochemical; conditions: TR-FRET, JAK1 2.5 nM
[2] = target: human JAK2 (Homo sapiens (Human), UniProt O60674); assay: JAK2 TR-FRET kinase assay; format: biochemical; conditions: JAK2 0.025 nM
[3] = target: TYK2 JH2 domain (Homo sapiens (Human), UniProt P29597); assay: TYK2 JH2 NanoBRET assay; format: binding; conditions: Table 20, read-out: TYK2 IC50
How it was run: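 Tracer displacement measured by BRET ratio (acceptor over donor) in live HEK293T cells transfected with a NanoLuc-tagged TYK2 JH2 construct; cells co-exposed to test compound and 0.5 µM final K10 tracer for 2 h before substrate/extracellular inhibitor addition.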

[4] = target: human JAK3 (Homo sapiens (Human), UniProt P52333); assay: JAK3 TR-FRET kinase assay; format: biochemical; conditions: JAK3 0.0125 nM
Chain of human JAK3 (P52333 whole entry): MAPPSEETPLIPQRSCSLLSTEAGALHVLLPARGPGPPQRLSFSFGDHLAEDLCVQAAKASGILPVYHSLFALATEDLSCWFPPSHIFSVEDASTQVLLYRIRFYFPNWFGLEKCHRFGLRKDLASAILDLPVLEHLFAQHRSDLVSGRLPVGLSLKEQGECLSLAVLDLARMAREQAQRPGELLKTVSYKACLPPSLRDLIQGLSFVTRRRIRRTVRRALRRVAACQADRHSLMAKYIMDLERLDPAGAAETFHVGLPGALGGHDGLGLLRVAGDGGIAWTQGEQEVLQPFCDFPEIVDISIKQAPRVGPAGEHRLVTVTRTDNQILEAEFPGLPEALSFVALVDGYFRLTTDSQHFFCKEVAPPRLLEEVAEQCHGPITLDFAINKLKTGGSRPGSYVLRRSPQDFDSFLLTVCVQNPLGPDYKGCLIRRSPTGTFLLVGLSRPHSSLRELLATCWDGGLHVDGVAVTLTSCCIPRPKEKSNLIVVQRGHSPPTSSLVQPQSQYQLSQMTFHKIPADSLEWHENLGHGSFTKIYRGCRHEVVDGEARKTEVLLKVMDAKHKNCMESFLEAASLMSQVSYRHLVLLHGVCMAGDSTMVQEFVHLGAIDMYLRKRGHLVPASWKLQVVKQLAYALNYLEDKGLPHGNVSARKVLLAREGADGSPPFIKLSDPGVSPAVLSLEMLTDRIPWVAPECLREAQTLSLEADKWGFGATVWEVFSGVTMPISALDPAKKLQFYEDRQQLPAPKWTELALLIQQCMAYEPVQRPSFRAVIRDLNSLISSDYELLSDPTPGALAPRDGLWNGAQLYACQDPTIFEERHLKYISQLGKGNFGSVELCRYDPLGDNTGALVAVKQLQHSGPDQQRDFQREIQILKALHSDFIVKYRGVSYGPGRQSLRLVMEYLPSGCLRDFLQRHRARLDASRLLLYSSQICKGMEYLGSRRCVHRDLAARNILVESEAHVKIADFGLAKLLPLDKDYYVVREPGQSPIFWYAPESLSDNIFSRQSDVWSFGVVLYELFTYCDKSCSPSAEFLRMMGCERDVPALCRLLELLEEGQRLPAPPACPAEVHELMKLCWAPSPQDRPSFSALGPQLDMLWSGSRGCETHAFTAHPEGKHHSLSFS

Chain of human JAK1 (P23458 whole entry): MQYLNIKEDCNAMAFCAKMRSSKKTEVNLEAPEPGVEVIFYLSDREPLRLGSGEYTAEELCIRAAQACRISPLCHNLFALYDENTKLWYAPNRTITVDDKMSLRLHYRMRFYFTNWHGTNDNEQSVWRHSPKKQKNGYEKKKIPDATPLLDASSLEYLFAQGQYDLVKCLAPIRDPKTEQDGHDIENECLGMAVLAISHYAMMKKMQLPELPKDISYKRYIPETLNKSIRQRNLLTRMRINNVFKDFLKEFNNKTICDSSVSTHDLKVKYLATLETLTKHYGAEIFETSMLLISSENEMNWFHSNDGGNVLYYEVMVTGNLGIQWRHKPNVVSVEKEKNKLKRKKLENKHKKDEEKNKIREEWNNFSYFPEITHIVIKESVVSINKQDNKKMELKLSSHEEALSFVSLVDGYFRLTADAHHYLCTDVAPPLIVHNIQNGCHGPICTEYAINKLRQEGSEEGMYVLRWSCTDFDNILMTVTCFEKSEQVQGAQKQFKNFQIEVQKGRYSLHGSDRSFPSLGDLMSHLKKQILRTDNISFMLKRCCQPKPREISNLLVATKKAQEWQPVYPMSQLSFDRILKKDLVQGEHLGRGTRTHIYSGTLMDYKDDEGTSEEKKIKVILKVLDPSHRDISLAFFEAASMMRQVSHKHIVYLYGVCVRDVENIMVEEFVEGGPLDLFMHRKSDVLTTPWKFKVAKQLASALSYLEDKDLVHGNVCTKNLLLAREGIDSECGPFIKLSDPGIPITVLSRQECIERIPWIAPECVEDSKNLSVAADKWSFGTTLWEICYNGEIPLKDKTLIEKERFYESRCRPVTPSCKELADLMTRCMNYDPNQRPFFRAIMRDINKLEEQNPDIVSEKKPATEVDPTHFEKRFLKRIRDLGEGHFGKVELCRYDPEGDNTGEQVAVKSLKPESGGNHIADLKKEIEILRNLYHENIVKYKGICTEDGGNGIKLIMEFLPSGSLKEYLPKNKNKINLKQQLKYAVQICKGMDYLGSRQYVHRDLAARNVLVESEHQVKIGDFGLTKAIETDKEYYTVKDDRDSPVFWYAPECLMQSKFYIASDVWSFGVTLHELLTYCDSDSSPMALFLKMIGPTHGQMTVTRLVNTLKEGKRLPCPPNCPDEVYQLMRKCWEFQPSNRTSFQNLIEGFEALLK
Chain of TYK2 JH2 domain (P29597 589-875): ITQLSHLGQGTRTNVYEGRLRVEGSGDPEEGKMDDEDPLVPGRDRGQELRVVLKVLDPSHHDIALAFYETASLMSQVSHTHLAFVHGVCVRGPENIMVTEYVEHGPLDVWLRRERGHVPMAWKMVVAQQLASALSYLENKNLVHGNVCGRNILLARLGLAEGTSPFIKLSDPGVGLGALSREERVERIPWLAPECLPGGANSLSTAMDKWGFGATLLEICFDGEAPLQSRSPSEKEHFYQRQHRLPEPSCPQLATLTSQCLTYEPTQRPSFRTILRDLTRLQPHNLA
Chain of human JAK2 (O60674 whole entry, the tested form may be a part): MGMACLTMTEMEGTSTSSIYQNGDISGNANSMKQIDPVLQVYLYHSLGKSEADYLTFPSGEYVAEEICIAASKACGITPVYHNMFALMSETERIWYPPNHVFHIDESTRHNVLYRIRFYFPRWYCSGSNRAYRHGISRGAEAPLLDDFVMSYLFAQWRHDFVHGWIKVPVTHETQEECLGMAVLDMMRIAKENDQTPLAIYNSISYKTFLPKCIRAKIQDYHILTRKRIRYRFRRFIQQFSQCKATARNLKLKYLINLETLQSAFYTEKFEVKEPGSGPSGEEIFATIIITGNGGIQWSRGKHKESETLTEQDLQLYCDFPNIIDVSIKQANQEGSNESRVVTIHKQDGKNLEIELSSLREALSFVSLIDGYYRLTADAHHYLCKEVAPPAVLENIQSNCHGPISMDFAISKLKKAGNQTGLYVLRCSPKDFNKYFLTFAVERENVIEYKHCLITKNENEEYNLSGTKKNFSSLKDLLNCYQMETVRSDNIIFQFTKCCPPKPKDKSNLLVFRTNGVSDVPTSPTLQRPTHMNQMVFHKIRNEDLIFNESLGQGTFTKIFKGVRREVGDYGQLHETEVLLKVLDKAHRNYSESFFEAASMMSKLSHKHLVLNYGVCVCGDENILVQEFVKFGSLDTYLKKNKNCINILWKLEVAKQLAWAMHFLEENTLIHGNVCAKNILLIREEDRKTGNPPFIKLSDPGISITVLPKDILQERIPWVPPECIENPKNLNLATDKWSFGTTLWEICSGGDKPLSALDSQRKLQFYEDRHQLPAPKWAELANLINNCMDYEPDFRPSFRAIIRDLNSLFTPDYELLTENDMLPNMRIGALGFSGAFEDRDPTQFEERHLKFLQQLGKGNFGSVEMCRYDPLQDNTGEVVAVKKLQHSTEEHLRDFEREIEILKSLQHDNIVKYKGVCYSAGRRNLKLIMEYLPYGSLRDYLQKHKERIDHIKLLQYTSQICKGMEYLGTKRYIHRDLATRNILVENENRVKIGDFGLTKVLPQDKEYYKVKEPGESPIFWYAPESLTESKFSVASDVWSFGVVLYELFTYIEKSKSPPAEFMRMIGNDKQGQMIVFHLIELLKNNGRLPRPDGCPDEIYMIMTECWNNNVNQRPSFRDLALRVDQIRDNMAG

Row | Compound | IC50 [1] [nM] | IC50 [2] [nM] | IC50 [3] [nM] | IC50 [4] [nM]
1 | CCC(=O)c1cnc(Nc2cc(CN3CCCC3)ncn2)cc1Nc1cccc(-c2ncn(C)n2)c1OC [Compound 9NNNN] | ≥ 500 | ≥ 500 | < 5 | ≥ 500
2 | [2H]C([2H])([2H])N(Cc1ccc(Nc2cc(Nc3cccc(-c4ncn(C)n4)c3OC)c(C(=O)CC)cn2)nc1)C([2H])([2H])[2H] [Compound 9W] | ≥ 500 | ≥ 500 | < 5 | ≥ 500
3 | CCC(=O)c1cnc(Nc2ccc(CN3[C@H](C)COC[C@@H]3C)cn2)cc1Nc1cccc(-c2ncn(C)n2)c1OC [Compound 9TT] | ≥ 500 | 50 to 500 | < 5 | 50 to 500
4 | CCC(=O)c1cnc(Nc2ccc(OC3CN(C)C3)cn2)cc1Nc1cccc(-c2ncn(C)n2)c1OC [Compound 18U] | ≥ 500 | ≥ 500 | < 5 | ≥ 500
5 | CCC(=O)c1cnc(Nc2ccc(S(=O)(=O)C3CC3)cn2)cc1Nc1cccc(-c2ncn(C)n2)c1OC [Compound 13H] | ≥ 500 | 50 to 500 | < 5 | 50 to 500
6 | CCC(=O)c1cnc(Nc2cnc(C(F)(F)CNC)cn2)cc1Nc1cccc(-c2ncn(C)n2)c1OC [Compound 19B] | ≥ 500 | ≥ 500 | 50 to 500 | ≥ 500
7 | CCC(=O)c1cnc(Nc2cnc(CN(C)CC(F)(F)F)cn2)cc1Nc1cccc(-c2ncn(C)n2)c1OC [Compound 9XXX] | ≥ 500 | ≥ 500 | 5 to 50 | ≥ 500
8 | CCC(=O)c1cnc(Nc2cnc(CN3CCN(C)CC3)cn2)cc1Nc1cccc(-c2ncn(C)n2)c1OC [Compound 9BBBB] | ≥ 500 | ≥ 500 | < 5 | ≥ 500
9 | CCC(=O)c1cnc(Nc2ccc(S(=O)(=O)N3CCOCC3)cn2)cc1Nc1cccc(-c2ncn(C)n2)c1OC [Compound 13E] | ≥ 500 | ≥ 500 | < 5 | ≥ 500
10 | CCC(=O)c1cnc(Nc2cnc(O[C@H]3CCN(C)C3)cn2)cc1Nc1cccc(-c2ncn(C)n2)c1OC [Compound 18TT] | ≥ 500 | ≥ 500 | < 5 | ≥ 500
11 | COc1c(Nc2cc(Nc3ccc(OC[C@H](O)CO)cn3)ncc2C(=O)C2CC2)cccc1-c1ncn(C)n1 [Compound 18J] | ≥ 500 | ≥ 500 | 5 to 50 | ≥ 500
12 | CCC(=O)c1cnc(Nc2ccc(C3(N(C)C)CC3)cn2)cc1Nc1cccc(-c2ncn(C)n2)c1OC [Compound 9Q] | ≥ 500 | ≥ 500 | < 5 | ≥ 500
13 | CCC(=O)c1cnc(Nc2cccc(C(=O)NC)n2)cc1Nc1cccc(-c2ncn(C)n2)c1OC [Compound 8K] | ≥ 500 | ≥ 500 | < 5 | ≥ 500
14 | CCC(=O)c1cnc(Nc2ccc([C@@H](C)N3CC[C@@H](O)C3)cn2)cc1Nc1cccc(-c2ncn(C)n2)c1OC [Compound 9OO] | ≥ 500 | 50 to 500 | < 5 | 50 to 500
15 | CCC(=O)c1cnc(Nc2ccc(CN(C)CC#N)cn2)cc1Nc1cccc(-c2ncn(C)n2)c1OC [Compound 9BB] | ≥ 500 | ≥ 500 | 5 to 50 | ≥ 500
16 | CCC(=O)c1cnc(Nc2ccn(CC3CCO3)n2)cc1Nc1cccc(-c2ncn(C)n2)c1OC (stereo not drawn) [Compound 21V] | ≥ 500 | ≥ 500 | 50 to 500 | ≥ 500
17 | CCC(=O)c1cnc(Nc2ccc(-c3cccn(C)c3=O)cn2)cc1Nc1cccc(-c2ncn(C)n2)c1OC [Compound 16A, 6′-((4-((2-methoxy-3-(1-methyl-1H-1,2,4-triazol-3-yl)phenyl)amino)-5-propionylpyridin-2-yl)amino)-1-methyl-[3,3′-bipyridin]-2(1H)-one] | ≥ 500 | 50 to 500 | < 5 | 50 to 500
18 | CCC(=O)c1cnc(Nc2ccn(-c3ccccn3)n2)cc1Nc1cccc(-c2ncn(C)n2)c1OC [Compound 21E] | ≥ 500 | ≥ 500 | < 5 | ≥ 500
19 | CCC(=O)c1cnc(Nc2ccc(O[C@@H]3CCOC3)cn2)cc1Nc1cccc(-c2ncn(C)n2)c1OC [Compound 18BB] | ≥ 500 | ≥ 500 | < 5 | ≥ 500
20 | CCC(=O)c1cnc(Nc2ccc(-n3ccnc3)cn2)cc1Nc1cccc(-c2ncn(C)n2)c1OC [Compound 15I] | ≥ 500 | ≥ 500 | < 5 | ≥ 500
21 | COc1c(Nc2cc(Nc3ccc(CN(C)C)cn3)ncc2C(=O)C2CC2)cccc1-c1ncn(C)n1 [Compound 9F] | ≥ 500 | ≥ 500 | 5 to 50 | ≥ 500

Row | Compound | IC50 [1] [nM] | IC50 [2] [nM] | IC50 [3] [nM] | IC50 [4] [nM]
22 | CCC(=O)c1cnc(Nc2cc(CN3CCCC3)n(C)n2)cc1Nc1cccc(-c2ncn(C)n2)c1OC [Compound 21G] | ≥ 500 | 50 to 500 | < 5 | 50 to 500
23 | CCC(=O)c1cnc(Nc2ccc(C(N)=O)cn2)cc1Nc1cccc(-c2ncn(C)n2)c1OC [Compound 8A, 6-((4-((2-methoxy-3-(1-methyl-1H-1,2,4-triazol-3-yl)phenyl)amino)-5-propionylpyridin-2-yl)amino)nicotinamide] | ≥ 500 | 50 to 500 | < 5 | 50 to 500
24 | CCC(=O)c1cnc(Nc2cc(CN)ncn2)cc1Nc1cccc(-c2ncn(C)n2)c1OC [Compound 9LLLL] | ≥ 500 | ≥ 500 | < 5 | ≥ 500
25 | CCC(=O)c1cnc(Nc2ccc(O[C@@H]3CCN(C)C3)cn2)cc1Nc1cc(F)cc(-c2ncn(C)n2)c1OC [Compound 18WWW] | ≥ 500 | ≥ 500 | < 5 | ≥ 500
26 | CCC(=O)c1cnc(Nc2cnc(CCN3CCCC3)cn2)cc1Nc1cccc(-c2ncn(C)n2)c1OC [Compound 11J] | ≥ 500 | ≥ 500 | 5 to 50 | ≥ 500
27 | CCC(=O)c1cnc(Nc2ccc([C@H](C)N3CC[C@@H](O)C3)cn2)cc1Nc1cccc(-c2ncn(C)n2)c1OC [Compound 9NN] | ≥ 500 | ≥ 500 | < 5 | ≥ 500
28 | CCC(=O)c1cnc(Nc2cc(CCN(C)C)ncn2)cc1Nc1cccc(-c2ncn(C)n2)c1OC [Compound 11F] | ≥ 500 | ≥ 500 | < 5 | ≥ 500
29 | CCC(=O)c1cnc(Nc2ccc(O[C@H]3CCN(C)C3)cn2)cc1Nc1cccc(-c2ncn(C)n2)c1OC [Compound 18W] | ≥ 500 | ≥ 500 | < 5 | ≥ 500
30 | CCC(=O)c1cnc(Nc2cc(C)n([C@H]3C[C@@H](O)C3)n2)cc1Nc1cccc(-c2ncn(C)n2)c1OC [Compound 21DD] | ≥ 500 | ≥ 500 | 5 to 50 | ≥ 500
31 | CCC(=O)c1cnc(Nc2cc(-c3ncn(C)n3)ccn2)cc1Nc1cccc(-c2ncn(C)n2)c1OC [Compound 15F] | ≥ 500 | ≥ 500 | < 5 | ≥ 500
32 | CCC(=O)c1cnc(NC(=O)C2CC2)cc1Nc1cc(F)cc(-c2ncn(CCO)n2)c1OC [Compound 25F] | ≥ 500 | ≥ 500 | 50 to 500 | ≥ 500
33 | CCC(=O)c1cnc(Nc2cnc(O[C@H]3CCN(C)C[C@@H]3F)cn2)cc1Nc1cccc(-c2ncn(C)n2)c1OC [Compound 18TTT] | ≥ 500 | ≥ 500 | 5 to 50 | ≥ 500
34 | CCC(=O)c1cnc(NC(=O)CCCN2CCCC2)cc1Nc1cccc(-c2ncn(C)n2)c1OC [Compound 23E] | ≥ 500 | ≥ 500 | 50 to 500 | ≥ 500
35 | CCC(=O)c1cnc(Nc2ncc(O[C@@H]3CCN(C)C3)cc2F)cc1Nc1cccc(-c2ncn(C)n2)c1OC [Compound 18XXX] | ≥ 500 | ≥ 500 | 5 to 50 | ≥ 500
36 | CCC(=O)c1cnc(Nc2cnc(O[C@@H]3CCN(CC(F)F)C3)cn2)cc1Nc1cccc(-c2ncn(C)n2)c1OC [Compound 18KKK] | ≥ 500 | ≥ 500 | 5 to 50 | ≥ 500
37 | CCC(=O)c1cnc(Nc2ccc(O[C@@H]3CCN(C)C3)c(C)n2)cc1Nc1cccc(-c2ncn(C)n2)c1OC [Compound 18YYY] | ≥ 500 | ≥ 500 | < 5 | 50 to 500
38 | CCC(=O)c1cnc(Nc2cccc(CN3CCOCC3)n2)cc1Nc1cccc(-c2ncn(C)n2)c1OC [Compound 9HHHH] | ≥ 500 | ≥ 500 | < 5 | ≥ 500
39 | CCC(=O)c1cnc(Nc2ccc([C@H](C)N3CC4(COC4)C3)cn2)cc1Nc1cccc(-c2ncn(C)n2)c1OC [Compound 9AAA] | ≥ 500 | ≥ 500 | < 5 | ≥ 500
40 | CCC(=O)c1cnc(Nc2ccc(O[C@H]3COC[C@@H]3O)cn2)cc1Nc1cccc(-c2ncn(C)n2)c1OC [Compound 18R] | ≥ 500 | ≥ 500 | < 5 | 50 to 500
41 | CCC(=O)c1cnc(Nc2ccc(S(C)(=O)=O)cn2)cc1Nc1cccc(CO)c1OC [Compound 13P] | ≥ 500 | ≥ 500 | 5 to 50 | 50 to 500
42 | CCC(=O)c1cnc(Nc2ccc([C@H](C)N3CC[C@H](O)C3)cn2)cc1Nc1cccc(-c2ncn(C)n2)c1OC [Compound 9LL] | ≥ 500 | ≥ 500 | < 5 | 50 to 500
